Measured values taken from publication PMC7179183, “Design of Biphenyl-Substituted Diarylpyrimidines with a Cyanomethyl Linker as HIV-1 NNRTIs via a Molecular Hybridization Strategy” (Molecules, 2020).
Where two headings read alike, the source gives them in different places.

Experiments:
[1] = tested on: E138K mutant HIV-1 strain; test: Anti-HIV-1 activity against E138K mutant strain in MT-4 cells; type: cell-based
MT-4 cells = test: Cytotoxicity in uninfected MT-4 cells, MTT method; type: cell-based; details: uninfected MT-4 cells; viability reduced by 50%
Description: (§1) The newly synthesized compounds were evaluated for their potency and cytotoxicity against the WT HIV-1 (strain IIIB) in MT-4 cells using the MTT method. The biological evaluation results are represented as EC50 values (anti-HIV-1 activity), CC50 values (cytotoxicity), and SI values (selectivity index, CC50/EC50 ratio).

WT HIV-1 RT = WT HIV-1 RT (Human immunodeficiency virus type 1 group M subtype B, UniProt P03366); test: Enzymatic assay against WT HIV-1 RT; details: read-out: IC50 WT HIV-1 RT polymerase activity
Description: The enzymatic assay against WT HIV-1 RT was conducted for most compounds (Table 2).

[2] = tested on: Y181C mutant HIV-1 strain; test: Anti-HIV-1 activity against Y181C mutant strain in MT-4 cells; type: cell-based
[3] = tested on: F227L + V106A double RT mutant HIV-1 strain; test: Anti-HIV-1 activity against F227L + V106A double mutant strain in MT-4 cells; type: cell-based
[4] = tested on: Y188L mutant HIV-1 strain; test: Anti-HIV-1 activity against Y188L mutant strain in MT-4 cells; type: cell-based
[5] = tested on: K103N mutant HIV-1 strain; test: Anti-HIV-1 activity against K103N mutant strain in MT-4 cells; type: cell-based
WT HIV-1 (strain IIIB) = test: microbe, parasite or virus in culture; type: cell-based
Description: as §1

[6] = tested on: K103N + Y181C double RT mutant HIV-1 strain; test: Anti-HIV-1 activity against K103N + Y181C double mutant strain in MT-4 cells; type: cell-based
[7] = tested on: L100I mutant HIV-1 strain; test: Anti-HIV-1 activity against L100I mutant strain in MT-4 cells; type: cell-based
WT HIV-1 = details: cited from earlier work
[8] = cited from earlier work
[9] = Cytotoxicity in uninfected MT-4 cells, MTT method; type: cell-based; details: human
Description: as §1

[10] = MT-4 cells, read-out: EC50 E138K
[11] = MT-4 cells, read-out: EC50 Y181C
[12] = MT-4 cells, read-out: EC50 F227L + V106A
[13] = MT-4 cells, read-out: EC50 Y188L
[14] = MT-4 cells, read-out: EC50 K103N
[15] = MT-4 cells, protection against virus-induced cytopathicity by 50%, mean of at least three experiments, read-out: EC50 HIV-1 IIIB
[16] = MT-4 cells, read-out: EC50 K103N + Y181C
[17] = MT-4 cells, read-out: EC50 L100I
[18] = Human immunodeficiency virus 1, MT4, read-out: EC50 E138K
[19] = Human immunodeficiency virus 1, MT4, read-out: EC50 Y181C
[20] = Human immunodeficiency virus 1, MT4, read-out: EC50 F227L + V106A
[21] = Human immunodeficiency virus 1, MT4, read-out: EC50 Y188L
[22] = Human immunodeficiency virus 1, MT4, read-out: EC50 K103N
[23] = Human immunodeficiency virus 1, IIIB, MT4, MT-4 cells, protection against virus-induced cytopathicity by 50%, mean of at least three experiments, read-out: EC50 HIV-1 IIIB
[24] = Human immunodeficiency virus 1, MT4, read-out: EC50 K103N + Y181C
[25] = Human immunodeficiency virus 1, MT4, read-out: EC50 L100I
[26] = uninfected MT-4 cells, viability reduced by 50%, read-out: CC50
[27] = statement in the introduction, no reference given

SMILES	EC50 [1, 10] [µM]	CC50 (MT-4 cells) [µM]	IC50 (WT HIV-1 RT) [µM]	EC50 [2, 11] [µM]	EC50 [3, 12] [µM]	EC50 [4, 13] [µM]	EC50 [5, 14] [µM]	EC50 (WT HIV-1 (strain IIIB); [15]) [µM]	EC50 [6, 16] [µM]	EC50 [7, 17] [µM]	further results
Cc1ccccc1-c1ccc(C(C#N)c2ccnc(Nc3ccc(C#N)cc3)n2)c(F)c1 (racemic) [Compound 10d, (±)-4-((4-(cyano(3-fluoro-2′-methyl-[1,1′-biphenyl]-4-yl)methyl)pyrimidin-2-yl)amino)benzonitrile]	2.5 ± 0.33	30.1 ± 1.94	0.074 ± 0.024	4.89 ± 1.07	> 30.1	> 30.1	8.14 ± 1.82	0.43 ± 0.21	> 30.1	3.67 ± 0.54	–
Cc1cccc(-c2ccc(C(C#N)c3ccnc(Nc4ccc(C#N)cc4)n3)c(F)c2)c1 (racemic) [Compound 10e, (±)-4-((4-(cyano(3-fluoro-3′-methyl-[1,1′-biphenyl]-4-yl)methyl)pyrimidin-2-yl)amino)benzonitrile]	3.59 ± 1.03	26.9 ± 3.78	0.101 ± 0.059	> 26.9	> 26.9	> 26.9	> 26.9	0.43 ± 0.07	> 26.9	9.14 ± 3.61	–
Cc1ccc(-c2ccc(C(C#N)c3ccnc(Nc4ccc(C#N)cc4)n3)c(F)c2)cc1 (racemic) [Compound 10f, (±)-4-((4-(cyano(3-fluoro-4′-methyl-[1,1′-biphenyl]-4-yl)methyl)pyrimidin-2-yl)amino)benzonitrile]	2.55 ± 0.17	30.9 ± 2.76	0.093 ± 0.051	9.27 ± 1.14	> 30.9	> 30.9	8.08 ± 2.74	0.43 ± 0.09	> 30.9	6.12 ± 1.62	–
COc1ccccc1-c1ccc(C(C#N)c2ccnc(Nc3ccc(C#N)cc3)n2)c(F)c1 (racemic) [Compound 10g, (±)-4-((4-(cyano(3-fluoro-2′-methoxy-[1,1′-biphenyl]-4-yl)methyl)pyrimidin-2-yl)amino)benzonitrile]	3.66 ± 0.19	30.1 ± 2.31	0.233 ± 0.125	7.79 ± 1.67	> 30	> 30	9.78 ± 1.6	0.61 ± 0.16	> 30	4.27 ± 0.46	–
COc1cccc(-c2ccc(C(C#N)c3ccnc(Nc4ccc(C#N)cc4)n3)c(F)c2)c1 (racemic) [Compound 10h, (±)-4-((4-(cyano(3-fluoro-3′-methoxy-[1,1′-biphenyl]-4-yl)methyl)pyrimidin-2-yl)amino)benzonitrile]	6.16 ± 1.47	30.7 ± 2.09	0.219 ± 0.171	> 30.7	> 30.7	> 30.7	> 30.7	1.5 ± 0.24	> 30.7	8.57 ± 1.26	–
N#Cc1ccc(Nc2nccc(C(C#N)c3ccc(-c4ccccc4F)cc3F)n2)cc1 (racemic) [Compound 10j, (±)-4-((4-(cyano(2′,3-difluoro-[1,1′-biphenyl]-4-yl)methyl)pyrimidin-2-yl)amino)benzonitrile]	1.03 ± 0.17	27.9 ± 3.56	0.058 ± 0.032	3.4 ± 0.48	> 27.9	> 27.9	3.93 ± 0.65	0.21 ± 0.05	> 27.9	6.06 ± 2.46	–
N#Cc1ccc(Nc2nccc(C(C#N)c3ccc(-c4cccc(F)c4)cc3F)n2)cc1 (racemic) [Compound 10k, (±)-4-((4-(cyano(3,3′-difluoro-[1,1′-biphenyl]-4-yl)methyl)pyrimidin-2-yl)amino)benzonitrile]	3.36 ± 0.4	30.7 ± 1.79	0.188 ± 0.172	9.15 ± 0.87	> 30.7	> 30.7	> 30.7	0.56 ± 0.19	> 30.7	9.29 ± 0.57	–
N#Cc1ccc(Nc2nccc(C(C#N)c3ccc(-c4ccccc4Cl)cc3F)n2)cc1 (racemic) [Compound 10m, (±)-4-((4-((2′-chloro-3-fluoro-[1,1′-biphenyl]-4-yl)(cyano)methyl)pyrimidin-2-yl)amino)benzonitrile]	2.43 ± 0.5	22.5 ± 4.7	0.074 ± 0.024	4.53 ± 1.47	> 22.5	> 22.5	5.34 ± 0.93	0.28 ± 0.04	> 22.5	5.61 ± 1.51	–
Cc1cc(C(C#N)c2ccccc2F)nc(Nc2ccc(C#N)cc2)n1 (stereo not shown) [Compound 1]	–	–	–	–	–	–	–	–	–	–	EC50 (WT HIV-1; read-out: EC50 anti-HIV potency): 0.0018 µM
Cc1cc(-c2ccc(C#N)cc2)cc(C)c1Nc1ccnc(Nc2ccc(C#N)cc2)n1 [Compound 2]	–	–	–	–	–	–	–	–	–	–	EC50 (WT HIV-1; read-out: EC50 WT HIV-1): 0.001 ± 0.0006 µM; CC50 ([8]; lead compound): 2.1 µM
Nc1ccn([C@@H]2CS[C@H](CO)O2)c(=O)n1 [Compound 3TC, lamivudine, reference compound]	–	–	–	–	–	–	–	–	–	–	EC50 [1, 18]: 5.06 ± 0.9 µM; CC50 [9]: > 87.2 µM; EC50 [2, 19]: 4.74 ± 1.31 µM; EC50 [3, 20]: 2.69 ± 0.87 µM; EC50 [4, 21]: 3.42 ± 0.95 µM; EC50 [5, 22]: 3.98 ± 0.76 µM; EC50 (WT HIV-1 (strain IIIB); [23]): 7.88 ± 3.15 µM; EC50 [6, 24]: 5.5 ± 1.31 µM; EC50 [7, 25]: 1.96 ± 0.29 µM
Cc1cc(C#N)cc(C)c1Oc1nc(Nc2ccc(C#N)cc2)nc(N)c1Br [ETR, etravirine, reference compound]	–	–	–	–	–	–	–	–	–	–	EC50 [1, 18]: 0.008 ± 0.004 µM; CC50 [9, 26]: > 4.6 µM; EC50 [2, 19]: 0.017 ± 0.003 µM; EC50 [3, 20]: 0.014 ± 0.005 µM; EC50 [4, 21]: 0.017 ± 0.006 µM; CC50 [8, 27]: ~6 µM; EC50 [5, 22]: 0.003 ± 0.001 µM; EC50 (WT HIV-1 (strain IIIB); Human immunodeficiency virus 1, MT4, read-out: EC50 HIV-1 IIIB): 0.0045 ± 0.001 µM; EC50 [6, 24]: 0.04 ± 0.01 µM; EC50 [7, 25]: 0.008 ± 0.002 µM
Cc1ccnc2c1NC(=O)c1cccnc1N2C1CC1 [NVP, nevirapine, reference compound]	–	–	–	–	–	–	–	–	–	–	EC50 [1, 18]: 0.2 ± 0.15 µM; CC50 [9, 26]: > 15 µM; EC50 [2, 19]: 6.07 ± 1.55 µM; EC50 [3, 20]: ≥ 4.28 µM; EC50 [4, 21]: ≥ 4.62 µM; EC50 [5, 22]: 4.7 ± 0.63 µM; EC50 (WT HIV-1 (strain IIIB); [23]): 0.2 ± 0.1 µM; EC50 [6, 24]: > 15 µM; EC50 [7, 25]: 0.98 ± 0.39 µM
Cc1cc(/C=C/C#N)cc(C)c1Nc1ccnc(Nc2ccc(C#N)cc2)n1 [RPV, rilpivirine, reference compound]	–	–	–	–	–	–	–	–	–	–	EC50 [1, 18]: 0.003 ± 0.001 µM; CC50 [9, 26]: 5.89 ± 0.31 µM; EC50 [2, 19]: 0.003 ± 0.001 µM; EC50 [3, 20]: 0.044 ± 0.012 µM; EC50 [4, 21]: 0.03 ± 0.009 µM; CC50 [8, 27]: ~6 µM; EC50 [5, 22]: 0.001 ± 0.0002 µM; EC50 (WT HIV-1 (strain IIIB); [23]): 0.0016 ± 0.0003 µM; EC50 [6, 24]: 0.009 ± 0.002 µM; EC50 [7, 25]: 0.002 ± 0.001 µM
